One assay concerns the target T1, connexin 26 (Cx26) K188N (Homo sapiens, UniProt P29033, K188N).
T1 construct: gene GJB2; purified recombinant connexin channel, His-tag Cy5 labeled
In words: microscale thermophoresis (MST). Type of assay: binding. The conditions noted are these: read-out: EC50. In general terms: MST reads how a fluorescent partner responds to local heating, with and without ligand.

The target in the next assay is T2, connexin 26 (Cx26) (Homo sapiens, UniProt P29033).
T2 construct: gene GJB2; purified recombinant WT connexin channel, His-tag Cy5 labeled
As to the kind of experiment: microscale thermophoresis (MST). Type of assay: binding. Conditions: read-out: EC50.

Our source for the Kd values is PMC10353060, “A Chemical Chaperone Restores Connexin 26 Mutant Activity” (ACS Pharmacology & Translational Science, 2023).

Take `O=C(Nc1ncc([C@H](c2ccccc2Cl)N2CC[C@@H](O)C2)s1)C1(c2ccc3c(c2)OCO3)CC1` [compound 3, 1-(benzo[d][1,3]dioxol-5-yl)-N-(5-((S)-(2-chlorophenyl)((R)-3-hydroxypyrrolidin-1-yl)methyl)thiazol-2-yl) cyclopropanecarboxamide]: the Kd was 4.75 ± 1 µM at connexin 26 (Cx26) K188N and 19.3 ± 7.3 µM at connexin 26 (Cx26).
